The record followed here is patent publication US20210115018A1, “PIPERIDINE COMPOUNDS AS COVALENT MENIN INHIBITORS” (THE REGENTS OF THE UNIVERSITY OF MICHIGAN, priority 2018, published 2021).

The assay concerns the target T1, menin protein (Homo sapiens, UniProt O00255).
T1 sequence (O00255 1-610): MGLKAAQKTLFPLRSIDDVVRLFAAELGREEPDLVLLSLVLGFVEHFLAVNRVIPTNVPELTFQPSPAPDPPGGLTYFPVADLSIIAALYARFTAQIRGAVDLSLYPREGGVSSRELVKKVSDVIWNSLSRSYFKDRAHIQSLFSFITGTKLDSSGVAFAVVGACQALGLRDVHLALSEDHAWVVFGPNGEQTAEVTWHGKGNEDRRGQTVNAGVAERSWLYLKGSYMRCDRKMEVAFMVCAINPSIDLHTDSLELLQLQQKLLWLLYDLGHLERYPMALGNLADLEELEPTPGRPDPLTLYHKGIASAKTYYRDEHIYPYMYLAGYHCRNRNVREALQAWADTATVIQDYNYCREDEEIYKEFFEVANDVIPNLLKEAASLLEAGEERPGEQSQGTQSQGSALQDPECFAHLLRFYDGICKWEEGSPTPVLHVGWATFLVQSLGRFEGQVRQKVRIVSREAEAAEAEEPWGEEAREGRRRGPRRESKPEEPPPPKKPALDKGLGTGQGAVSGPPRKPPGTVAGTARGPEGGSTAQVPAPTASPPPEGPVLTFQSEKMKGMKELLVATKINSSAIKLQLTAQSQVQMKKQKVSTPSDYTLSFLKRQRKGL
The experiment in a line: Fluorescence polarization (FP) competitive binding assay, menin binding affinity. The note with it: FP competition with FAM-MM2 probe 2 nM, menin 4 nM, 30 minutes room temperature. The method, then:
A fluorescence polarization (FP) competitive binding assay was used to determine the binding affinities of representative menin inhibitors. A FAM labeled fluorescent probe was designed and synthesized based on a MLL1 peptide (FAM-MM2). Equilibrium dissociation constant (Kd) value of FAM-MM2 to menin protein was determined from protein saturation experiments by monitoring the total fluorescence polarization of mixtures composed with the fluorescent probe at a fixed concentration and the protein with increasing concentrations up to full saturation. Serial dilutions of the protein were mixed with FAM-MM2 to a final volume of 200 μl in the assay buffer (PBS with 0.02% Bovine γ-Globulin and 4% DMSO. 0.01% Triton X-100 was added right before assays). Final FAM-MM2 concentration was 2 nM. Plates were incubated at room temperature for 30 minutes with gentle shaking to assure equilibrium. FP values in millipolarization units (mP) were measured using the Infinite M-1000 plate reader (Tecan U.S., Research Triangle Park, N.C.) in Microfluor 1 96-well, black, v-bottom plates (Thermo Scientific, Waltham, Mass.) at an excitation wavelength of 485 nm and an emission wavelength of 530 nm.
The IC50 of representative Compounds of the Disclosure, see Table 3, were determined in a competitive binding experiment. Mixtures of 5 μl of the tested compounds in DMSO and 195 μl of preincubated protein/probe complex solution in the assay buffer were added into assay plates which were incubated at room temperature for 30 minutes with gentle shaking. Final concentration of the menin protein was 4 nM, and final probe concentration is 2 nM. Negative controls containing protein/probe complex only (equivalent to 0% inhibition), and positive controls containing only free probes (equivalent to 100% inhibition), were included in each assay plate. FP values were measured as described above. IC50 values were determined by nonlinear regression fitting of the competition curves.
For orientation: Polarisation of emitted light reports the rotation of a fluorescent probe.

In the case of `COC(=O)N[C@H]1CCC[C@@H]1[C@](CN1CCC1)(c1cc(F)cc(F)c1)C1CCN(CC2(F)CN(c3ccc(S(=O)(=O)C4CN(C(=O)/C=C/CN(C)C)C4)cc3)C2)CC1` [Cpd. No. 11, methyl ((1S,2R)-2-((S)-2-(azetidin-1-yl)-1-(3,5-difluorophenyl)-1-(1-((1-(4-((1-((E)-4-(dimethylamino)but-2-enoyl)azetidin-3-yl)sulfonyl)phenyl)-3-fluoroazetidin-3-yl)methyl)piperidin-4-yl)ethyl)cyclopentyl)carbamate], the half-inhibitory concentration (IC50) amounted to 2 nM. `C=CC(=O)N1CC(S(=O)(=O)c2ccc(N3CC(CN4CCC([C@@](CN5CCC5)(c5cccc(F)c5)[C@H]5CCC[C@@H]5NC(=O)OC)CC4)C3)cc2)C1` [Cpd. No. 14, methyl ((1S,2R)-2-((S)-1-(1-((1-(4-((1-acryloylazetidin-3-yl)sulfonyl)phenyl)azetidin-3-yl)methyl)piperidin-4-yl)-2-(azetidin-1-yl)-1-(3-fluorophenyl)ethyl)cyclopentyl)carbamate]: the concentration for half-maximal inhibition (IC50) amounted to 2 nM. The value for `C#CC(=O)N1CC(S(=O)(=O)c2ccc(N3CC(CN4CCC([C@@](CN5CCC5)(c5cccc(F)c5)[C@H]5CCC[C@@H]5NC(=O)OC)CC4)C3)cc2)C1` [Cpd. No. 15, methyl ((1S,2R)-2-((S)-2-(azetidin-1-yl)-1-(3-fluorophenyl)-1-(1-((1-(4-((1-propioloylazetidin-3-yl)sulfonyl)phenyl)azetidin-3-yl)methyl)piperidin-4-yl)ethyl)cyclopentyl)carbamate] was 3 nM; that for `C=CC(=O)N1CC(S(=O)(=O)c2ccc(N3CC(F)(CN4CCC([C@@](CN5CCC5)(c5cccc(F)c5)[C@H]5CCC[C@@H]5NC(=O)OC)CC4)C3)cc2)C1` [Cpd. No. 16, methyl ((1S,2R)-2-((S)-1-(1-((1-(4-((1-acryloylazetidin-3-yl)sulfonyl)phenyl)-3-fluoroazetidin-3-yl)methyl)piperidin-4-yl)-2-(azetidin-1-yl)-1-(3-fluorophenyl)ethyl)cyclopentyl)carbamate] was 3 nM; that for `C=C(CN1CCC(O)CC1)C(=O)N1CC(S(=O)(=O)c2ccc(N3CC(CN4CCC([C@@](CN5CCC5)(c5cccc(F)c5)[C@H]5CCC[C@@H]5NC(=O)OC)CC4)C3)cc2)C1` [Cpd. No. 23, methyl ((1S,2R)-2-((S)-2-(azetidin-1-yl)-1-(3-fluorophenyl)-1-(1-((1-(4-((1-(2-((4-hydroxypiperidin-1-yl)methyl)acryloyl)azetidin-3-yl)sulfonyl)phenyl)azetidin-3-yl)methyl)piperidin-4-yl)ethyl)cyclopentyl)carbamate] was 2 nM. For `C=C(CN1CCOCC1)C(=O)N1CC(S(=O)(=O)c2ccc(N3CC(CN4CCC([C@](CN5CCC5)(c5cccc(F)c5)[C@H]5CCC[C@@H]5NC(=O)OC)CC4)C3)cc2)C1` [Cpd. No. 27, methyl ((1S,2R)-2-((R)-2-(azetidin-1-yl)-1-(3-fluorophenyl)-1-(1-((1-(4-((1-(2-(morpholinomethyl)acryloyl)azetidin-3-yl)sulfonyl)phenyl)azetidin-3-yl)methyl)piperidin-4-yl)ethyl)cyclopentyl)carbamate] the value was 4 nM; for `C=C(CN1CCOCC1)C(=O)N1CC(S(=O)(=O)c2ccc(N3CC(CN4CCC([C@@](C#N)(c5cccc(F)c5)[C@H]5CCC[C@@H]5NC(=O)OC)CC4)C3)cc2)C1` [Cpd. No. 28, methyl ((1S,2R)-2-((S)-cyano(3-fluorophenyl)(1-((1-(4-((1-(2-(morpholinomethyl)acryloyl)azetidin-3-yl)sulfonyl)phenyl)azetidin-3-yl)methyl)piperidin-4-yl)methyl)cyclopentyl)carbamate], 2 nM; for `C=C(CN1CCCCC1)C(=O)N1CC(S(=O)(=O)c2ccc(N3CC(CN4CCC([C@@](C#N)(c5cccc(F)c5)[C@H]5CCC[C@@H]5NC(=O)OC)CC4)C3)cc2)C1` [Cpd. No. 29, methyl ((1S,2R)-2-((S)-cyano(3-fluorophenyl)(1-((1-(4-((1-(2-(piperidin-1-ylmethyl)acryloyl)azetidin-3-yl)sulfonyl)phenyl)azetidin-3-yl)methyl)piperidin-4-yl)methyl)cyclopentyl)carbamate], 2 nM.

For `C=C(CN1CCOCC1)C(=O)N1CC(S(=O)(=O)c2cccc(N3CC(CN4CCC([C@@](CN5CCC5)(c5cccc(F)c5)[C@H]5CCC[C@@H]5NC(=O)OC)CC4)C3)c2)C1` [Cpd. No. 30, methyl ((1S,2R)-2-((S)-2-(azetidin-1-yl)-1-(3-fluorophenyl)-1-(1-((1-(3-((1-(2-(morpholinomethyl)acroyloyl)azetidin-3-yl)sulfonyl)phenyl)azetidin-3-yl)methyl)piperidin-4-yl)ethyl)cyclopentyl)carbamate], the IC50 is 5 nM.

In the case of `COC(=O)N[C@H]1CCC[C@@H]1[C@@](CN1CCC1)(c1cccc(F)c1)C1CCN(CC2CN(c3ccc(S(=O)(=O)C4CN(C(=O)/C=C/CN5CCOCC5)C4)cc3)C2)CC1` [Cpd. No. 31, methyl ((1S,2R)-2-((R)-2-(azetidin-1-yl)-1-(3-fluorophenyl)-1-(1-((1-(4-((1-((E)-4-morpholinobut-2-enoyl)azetidin-3-yl)sulfonyl)phenyl)azetidin-3-yl)methyl)piperidin-4-yl)ethyl)cyclopentyl)carbamate], the IC50 is 88 nM. For `C=CC(=O)Nc1cccc(S(=O)(=O)c2ccc(N3CC(CN4CCC([C@@](CN5CCC5)(c5cccc(F)c5)[C@H]5CCC[C@@H]5NC(=O)OC)CC4)C3)cc2)c1` [Cpd. No. 32, methyl ((1S,2R)-2-((S)-1-(1-((1-(4-((3-acrylamidophenyl)sulfonyl)phenyl)azetidin-3-yl)methyl)piperidin-4-yl)-2-(azetidin-1-yl)-1-(3-fluorophenyl)ethyl)cyclopentyl)carbamate] the value was 2 nM; for `C=CC(=O)N1CCCC[C@H](S(=O)(=O)c2ccc(N3CC(CN4CCC([C@@](CN5CCC5)(c5cccc(F)c5)[C@H]5CCC[C@@H]5NC(=O)OC)CC4)(OC)C3)cc2)C1` [compound 234], 4 nM. The value for `C=CC(=O)N1CCCC[C@H](S(=O)(=O)c2ccc(N3CC(CN4CCC([C@@](CN5CCC5)(c5cccc(F)c5)[C@H]5CCC[C@@H]5NC(=O)OC)CC4)(OC)C3)c(F)c2)C1` [compound 235] was 4 nM; that for `C=CC(=O)N1CCCC[C@H](S(=O)(=O)c2ccc(N3CC(F)(CN4CCC([C@@](CN5CCC5)(c5cccc(F)c5)[C@H]5CCC[C@@H]5NC(=O)OC)CC4)C3)cc2)C1` [compound 236] was 4 nM. The value for `C=CC(=O)N1CCCC[C@H](S(=O)(=O)c2ccc(N3CC(F)(CN4CCC([C@@](CN5CCC5)(c5cccc(F)c5)[C@H]5CCC[C@@H]5NC(=O)OC)CC4)C3)c(F)c2)C1` [compound 237] was 4 nM. For `C=CC(=O)N1CCN(C(C)=O)[C@H](CS(=O)(=O)c2ccc(N3CC(CN4CCC([C@@](CN5CCC5)(c5cccc(F)c5)[C@H]5CCC[C@@H]5NC(=O)OC)CC4)(OC)C3)cc2)C1` [compound 238], the half-maximal inhibitory concentration (IC50) is 7 nM.

As for `C=CC(=O)N1CCN(C(C)=O)[C@@H](CS(=O)(=O)c2ccc(N3CC(CN4CCC([C@@](CN5CCC5)(c5cccc(F)c5)[C@H]5CCC[C@@H]5NC(=O)OC)CC4)(OC)C3)cc2)C1` [compound 239], the IC50 was 6 nM.

For the compound `C=CC(=O)N1CC2CC1CN2S(=O)(=O)c1ccc(N2CC(CN3CCC([C@@](CN4CCC4)(c4cccc(F)c4)[C@H]4CCC[C@@H]4NC(=O)OC)CC3)(OC)C2)cc1` (some centres unmarked) [compound 240], the IC50 came out at 4 nM. `C=CC(=O)N1CCN(C(C)=O)CC(S(=O)(=O)c2ccc(N3CC(CN4CCC([C@@](CN5CCC5)(c5cccc(F)c5)[C@H]5CCC[C@@H]5NC(=O)OC)CC4)(OC)C3)cc2)C1` (some centres unmarked) [compound 241]: the IC50 was determined as 10 nM. With `C=CC(=O)N1CCN(C(=O)OC)CC(S(=O)(=O)c2ccc(N3CC(CN4CCC([C@@](CN5CCC5)(c5cccc(F)c5)[C@H]5CCC[C@@H]5NC(=O)OC)CC4)(OC)C3)cc2)C1` (some centres unmarked) [compound 242], the IC50 stood at 10 nM.

The IC50 is the midpoint of a concentration-inhibition curve.
